“Also recorded” adds a separate entry of the source.

The target of experiment [1] is T1, Lysosomal α-fucosidase (Homo sapiens, UniProt P04066).
T1 construct: human liver extracts; from tissue; host or cells: human liver extracts
T1 sequence (P04066 32-466): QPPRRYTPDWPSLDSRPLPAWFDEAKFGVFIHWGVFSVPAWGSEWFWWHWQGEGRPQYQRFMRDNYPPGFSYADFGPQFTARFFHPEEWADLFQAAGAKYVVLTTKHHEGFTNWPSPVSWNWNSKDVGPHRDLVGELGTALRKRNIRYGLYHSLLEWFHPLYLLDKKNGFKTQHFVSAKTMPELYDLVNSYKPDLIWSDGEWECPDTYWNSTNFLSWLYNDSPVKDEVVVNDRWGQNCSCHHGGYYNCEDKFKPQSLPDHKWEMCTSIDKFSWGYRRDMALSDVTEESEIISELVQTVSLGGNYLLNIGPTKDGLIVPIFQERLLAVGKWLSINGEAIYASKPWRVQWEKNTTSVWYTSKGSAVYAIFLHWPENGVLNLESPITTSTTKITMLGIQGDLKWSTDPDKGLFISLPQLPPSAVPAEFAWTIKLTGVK
In words: Human liver glycosidase assay, lysosomal α-fucosidase. It is filed as biochemical. As to conditions: for inhibition at 1000 µM: 1 mM compound, human liver, read-out: Inhibition (%) at 1 mM, lysosomal α-fucosidase. On the procedure: (§1) Melting points were recorded on a Kofler hot block. Proton nuclear magnetic resonance (δH) spectra were recorded on Varian Gemini 200 (at 200 MHz), Bruker WH 300 (300 MHz), or Bruker AM 500 (500 MHz) spectrometers. Carbon nuclear magnetic resonance (δC) spectra were recorded on a Varian Gemini 200 (50 MHz) or a Bruker 250 (62.9 MHz) spectrometer. Multiplicities were assigned using DEPT sequence on the Gemini and by off resonance decoupling on the Bruker. Spectra run in D2 O were referenced to methanol as an internal standard. All chemical shifts are quoted on the δ-scale. Infrared spectra were recorded on a Perkin-Elmer 297, or on a Perkin-Elmer 781 spectrophotometer. Mass spectra were recorded on VG Micromass 30F, ZAB lF, Masslab 20-250 or Trio-1 GCMS (DB-5 column) spectrometers using desorption chemical ionization (NH3 DCI), electron impact (EI), chemical ionization (NH3 CI) and fast atom bombardment (FAB) techniques, as stated. […] Concentrations were given in g/100 ml. Hydrogenations were run under an atmosphere of hydrogen gas maintained by inflated balloon. Microanalyses were performed by the microanalysis service of the DysonPerrins laboratory, Oxford UK. Thin layer chromatography (t.l.c.) was carried out on aluminum sheets coated with 60F254 silica. Plates were developed using either 5% v/v concentrated sulphuric acid in methanol, 0.2% w/v cerium (IV) sulphate and 5% ammonium molybdate in 2M sulphuric acid and 0.5% ninhydrin in methanol. Flash chromatography was carried out using Sorbsil C60 40/60 silica. Ion-exchange chromatography was performed using Dowex 50W-X8 (H) and Sigma CG 400 (Cl) resins. The resins were washed with 2M hydrochloric acid and 2M sodium hydroxide solution, respectively, and subsequently with distilled water, prior to use. Solvents and commercially available reagents were dried and purified before use according to standard procedures; dichloromethane was refluxed over and distilled from calcium hydride, N,N-dimethylformamide was distilled under reduced pressure from calcium hydride, methanol was distilled from magnesium methoxide, pyridine was distilled from, and stored over, potassium hydroxide and tetrahydrofuran was distilled from a purple solution of sodium benzophenone ketyl immediately before use. Hexane was distilled at 68° C. before use to remove involatile fractions. 2,3-O-Isopropylidene-L-gulono-1,4-lactone (9) [H. Ogura et al., J. Oro. Chem. 37, 72 (1972); G. W. J. Fleet Tetrahedron 45, 319 (1989)]and 2,3-O-isopropylidene-D-gulono-1,4-lactone (15) [L. M. Lerner et al., J. Org. Chem. 33, 1780 (1968)]were prepared from D- and L-Chem. gulonolactones [purchased from the Sigma Chemical Company] as reported previously. See, e.g., Fleet, U.S. Pat. No. 4,861,892. Human liver glycosidases were assayed in the absence and presence [1 mM] of each of the compounds using the appropriate buffered 4-methylumbellifeeryl-glycosides as substrates, as described previously. [B. Winchest et al., Biochem. J. 265, 277 (1990)]. Naringinase was assayed using pnitrophenyl α-L-rhamnoside (1.75 mM) as substrates, according to Romero [C. Romero et al., Anal. Biochem. 149, 566 (1985)].
(§2) The enzymes included human liver glycosidases and naringinase. The latter enzyme is a readily available endo-L-rhamnosidase described by Romero et al., Anal. Biochem. 149, 566 (1985).

Experiment [2] concerns the target T2, Lysosomal α-mannosidase (Homo sapiens, UniProt O00754).
T2 sequence (O00754 50-1011): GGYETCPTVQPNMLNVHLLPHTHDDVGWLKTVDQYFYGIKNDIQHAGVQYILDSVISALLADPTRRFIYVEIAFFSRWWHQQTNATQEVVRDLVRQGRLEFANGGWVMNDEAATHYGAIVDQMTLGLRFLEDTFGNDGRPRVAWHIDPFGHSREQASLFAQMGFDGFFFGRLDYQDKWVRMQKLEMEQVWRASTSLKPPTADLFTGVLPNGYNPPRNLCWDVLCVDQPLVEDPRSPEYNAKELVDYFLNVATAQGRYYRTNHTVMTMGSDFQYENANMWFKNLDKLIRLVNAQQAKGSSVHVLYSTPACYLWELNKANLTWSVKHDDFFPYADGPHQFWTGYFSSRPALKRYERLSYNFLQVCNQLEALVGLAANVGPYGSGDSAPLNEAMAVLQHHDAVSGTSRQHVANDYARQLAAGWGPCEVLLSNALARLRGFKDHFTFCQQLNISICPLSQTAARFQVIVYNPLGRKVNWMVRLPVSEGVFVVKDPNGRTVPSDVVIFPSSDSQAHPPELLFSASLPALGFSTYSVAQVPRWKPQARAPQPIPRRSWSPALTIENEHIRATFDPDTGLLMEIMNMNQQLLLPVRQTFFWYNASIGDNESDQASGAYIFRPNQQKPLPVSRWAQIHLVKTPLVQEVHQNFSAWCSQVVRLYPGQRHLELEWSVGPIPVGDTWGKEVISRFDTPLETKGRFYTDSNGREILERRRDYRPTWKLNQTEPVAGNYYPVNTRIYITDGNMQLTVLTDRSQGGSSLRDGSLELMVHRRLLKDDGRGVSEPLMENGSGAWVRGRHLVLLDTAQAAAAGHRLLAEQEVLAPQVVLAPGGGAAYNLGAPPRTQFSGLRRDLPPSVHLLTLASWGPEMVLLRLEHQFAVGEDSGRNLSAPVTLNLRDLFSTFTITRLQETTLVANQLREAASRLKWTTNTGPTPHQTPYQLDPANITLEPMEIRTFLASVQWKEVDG
In words: Human liver glycosidase assay, lysosomal α-mannosidase. It is filed as biochemical. More on the design: human liver extracts; from tissue; host or cells: human liver extracts. As to conditions: for inhibition at 1000 µM: 1 mM compound, 4-methylumbelliferyl-glycoside substrate; for inhibition at 1000 µM / IC50: human liver; for IC50: read-out: I50, lysosomal α-mannosidase. On the procedure:
as §1, §2

`C[C@H]1NC(=O)[C@@H](O)[C@@H](O)[C@@H]1O` [D-Rhamno-1,5-lactam (6), 6-Deoxy-D-mannono-δ-lactam]: in experiment [1], the “Inhibition of α-fucosidase (in words)” value is “does not show any significant inhibition” and the inhibition at 1000 µM was found to be 0%. Further, in experiment [2], the inhibition at 1000 µM is 86% and the IC50 stood at 100 µM. In addition, the “Inhibition of α-mannosidase (in words)” value in experiment [2] (listed as D-rhamnono-1,5-lactone) is “inhibitor of α- and β-mannosidases; also recorded: better inhibitor of α-mannosidase than deoxymannojirimycin (1)”.
In the case of `C[C@@H]1NC(=O)[C@H](O)[C@H](O)[C@H]1O` [L-Rhamno-1,5-lactam (8), 6-Deoxy-L-mannono-δ-lactam], the inhibition at 1000 µM in experiment [1] and in experiment [2] was 0% in each case.
As to `O=C1N[C@H](CO)[C@@H](O)[C@H](O)[C@@H]1O` [Mannono-1,5-lactam (2), D-mannonolactam], the inhibition at 1000 µM in experiment [1] is 0%. In experiment [2], 1000 µM produced 94% inhibition and the IC50 came to 50 µM.

The values above are taken from patent US5210089A, “D-rhamnono-1,5-lactone” (Monsanto Company, priority 1992, dated 1993).
